Data published in patent US7932255B2, “2-aminocarbonyl substituted piperazine or diaza-cyclic compounds as apoptosis protein inhibitors (lap) modulators” (Novartis AG, priority 2006, dated 2011).
Like-named read-outs stand apart in the source and are kept apart here.

Molecular target: T1, XIAP (Homo sapiens, UniProt P98170)
T1 construct: GST
Assay: Disruption of the Smac peptide-(XIAP)BIR3 protein-protein interaction (Tables 2 and 3)
Assay type: binding
Procedure, shortened: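 Compounds compete with immobilized Smac peptide for the XIAP BIR3 pocket. Percent inhibition at 4 concentrations (usually 3- or 10-fold series from 10 μM); IC50 by logarithmic regression, normalized to an average reference-inhibitor IC50.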

[1] = Series B compounds, Table 3, read-out: XIXP IC50
[2] = Series A compounds, Table 2, read-out: XIAP IC50

T1 sequence (P98170 248-358 limits assumed, species assumed): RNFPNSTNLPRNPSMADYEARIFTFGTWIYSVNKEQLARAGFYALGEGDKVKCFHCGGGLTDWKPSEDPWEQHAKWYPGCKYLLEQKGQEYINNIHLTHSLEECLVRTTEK

Structure (SMILES) | IC50 [1] | IC50 [2]
CN[C@@H](C)C(=O)N[C@H](C(=O)N1CCN(Cc2ccccc2)C[C@H]1C(=O)NCCc1cccnc1)C(C)C [Compound 66, (S)-4-Benzyl-1-[(S)-3-methyl-2-((S)-2-methylamino-propionylamino)-butyryl]-piperazine-2-carboxylic acid (2-pyridin-3-yl-ethyl)-amide] | > 10 µM | –
CN[C@@H](C)C(=O)N[C@H](C(=O)N1CCN(c2ccc(F)cc2)C[C@H]1C(=O)NC1CCCc2ccccc21)C(C)C (stereo partly drawn) [Compound 44, (S)-4-(4-Fluoro-phenyl)-1-[(S)-3-methyl-2-((S)-2-methylamino-propionylamino)-butyryl]-piperazine-2-carboxylic acid (1,2,3,4-tetrahydro-naphthalen-1-yl)-amide] | – | < 10 µM
CN[C@@H](C)C(=O)N[C@H](C(=O)N1CCN(S(=O)(=O)c2sccc2-c2ccno2)C[C@H]1C(=O)NC1CCCc2ccccc21)C(C)C (stereo partly drawn) [Compound 42, (S)-4-(3-Isoxazol-5-yl-thiophene-2-sulfonyl)-1-[(S)-3-methyl-2-((S)-2-methylamino-propionylamino)-butyryl]-piperazine-2-carboxylic acid (1,2,3,4-tetrahydro-naphthalen-1-yl)-amide] | – | < 10 µM
CN[C@@H](C)C(=O)N[C@H](C(=O)N1CCN(C(=O)OCC(C)C)C[C@H]1C(=O)NC1CCCc2ccccc21)C(C)C (stereo partly drawn) [Compound 31, (S)-4-[(S)-3-Methyl-2-((S)-2-methylamino-propionylamino)-butyryl]-3-(1,2,3,4-tetrahydro-naphthalen-1-ylcarbamoyl)-piperazine-1-carboxylic acid isobutyl ester] | – | < 10 µM
CN[C@@H](C)C(=O)N[C@H](C(=O)N1CCN(Cc2ccccc2)C[C@H]1C(=O)NCc1ccc(F)cc1)C(C)C [Compound 70, (S)-4-Benzyl-1-[(S)-3-methyl-2-((S)-2-methylamino-propionylamino)-butyryl]-piperazine-2-carboxylic acid 4-fluoro-benzylamide] | < 10 µM | –
CN[C@@H](C)C(=O)N[C@H](C(=O)N1CCN(Cc2ccc(F)cc2)C[C@H]1C(=O)NC1CCCc2ccccc21)C(C)C (stereo partly drawn) [Compound 10, (S)-4-(4-Fluoro-benzyl)-1-[(S)-3-methyl-2-((S)-2-methylamino-propionylamino)-butyryl]-piperazine-2-carboxylic acid (1,2,3,4-tetrahydro-naphthalen-1-yl)-amide] | – | < 10 µM
CN[C@@H](C)C(=O)N[C@H](C(=O)N1CCN(Cc2ccccc2)C[C@H]1C(=O)NCC1CCCCCC1)C(C)C [Compound 77, (S)-4-Benzyl-1-[(S)-3-methyl-2-((S)-2-methylamino-propionylamino)-butyryl]-piperazine-2-carboxylic acid cycloheptylmethyl-amide] | > 10 µM | –
CN[C@@H](C)C(=O)N[C@H](C(=O)N1CCN(CC2CCCC2)C[C@H]1C(=O)NC1CCCc2ccccc21)C(C)C (stereo partly drawn) [Compound 7, (S)-4-Cyclopentylmethyl-1-[(S)-3-methyl-2-((S)-2-methylamino-propionylamino)-butyryl]-piperazine-2-carboxylic acid (1,2,3,4-tetrahydro-naphthalen-1-yl)-amide] | – | < 10 µM
CN[C@@H](C)C(=O)N[C@H](C(=O)N1CCN(Cc2ccccc2)C[C@H]1C(=O)NC1CCc2ccccc2C1)C(C)C (stereo partly drawn) [Compound 68, (S)-4-Benzyl-1-[(S)-3-methyl-2-((S)-2-methylamino-propionylamino)-butyryl]-piperazine-2-carboxylic acid (1,2,3,4-tetrahydro-naphthalen-2-yl)-amide] | < 10 µM | –
CC(C)[C@H](NC(=O)[C@H](C)N(C)C(=O)OC(C)(C)C)C(=O)N1CCN(Cc2ccccc2)C[C@H]1C(=O)N[C@@H]1CCCc2ccccc21 [Compound 57, [(S)-1-((S)-1-{(S)-4-Benzyl-2-[(R)-(1,2,3,4-tetrahydro-naphthalen-1-yl)carbamoyl]-piperazine-1-carbonyl}-2-methyl-propylcarbamoyl)-ethyl]-methyl-carbamic acid tert-butyl ester] | – | > 10 µM
CN[C@@H](C)C(=O)N[C@H](C(=O)N1CCN(Cc2ccccc2)C[C@H]1C(=O)N1CCc2ccccc2C1)C(C)C [Compound 86, (S)-N-{(S)-1-[(S)-4-Benzyl-2-(3,4-dihydro-1H-isoquinoline-2-carbonyl)-piperazine-1-carbonyl]-2-methyl-propyl}-2-methylamino-propionamide] | < 10 µM | –
CN[C@@H](C)C(=O)N[C@H](C(=O)N1CCN(Cc2ccncc2)C[C@H]1C(=O)NC1CCCc2ccccc21)C(C)C (stereo partly drawn) [Compound 9, (S)-1-[(S)-3-Methyl-2-((S)-2-methylamino-propionylamino)-butyryl]-4-pyridin-4-ylmethyl-piperazine-2-carboxylic acid (1,2,3,4-tetrahydro-naphthalen-1-yl)-amide] | – | < 10 µM
CN[C@@H](C)C(=O)N[C@H](C(=O)N1CCN(Cc2ccccc2)C[C@H]1C(=O)NCCC(C)C)C(C)C [Compound 83, (S)-4-Benzyl-1-[(S)-3-methyl-2-((S)-2-methylamino-propionylamino)-butyryl]-piperazine-2-carboxylic acid (3-methyl-butyl)-amide] | > 10 µM | –
CN[C@@H](C)C(=O)N[C@H](C(=O)N1CCN(Cc2ccccc2)C[C@H]1C(=O)N1Cc2ccccc2C1)C(C)C [Compound 85, (S)-N-{(S)-1-[(S)-4-Benzyl-2-(1,3-dihydro-isoindole-2-carbonyl)-piperazine-1-carbonyl]-2-methyl-propyl}-2-methylamino-propionamide] | < 10 µM | –
CN[C@@H](C)C(=O)N[C@H](C(=O)N1CCN(Cc2ccccc2)C[C@H]1C(=O)NC1c2ccccc2-c2ccccc21)C(C)C [Compound 75, (S)-4-Benzyl-1-[(S)-3-methyl-2-((S)-2-methylamino-propionylamino)-butyryl]-piperazine-2-carboxylic acid (9H-fluoren-9-yl)-amide] | < 10 µM | –
CN[C@@H](C)C(=O)N[C@H](C(=O)N1CCN(Cc2ccccc2)C[C@H]1C(=O)NC(c1ccccc1)c1ccccc1)C(C)C [Compound 64, (S)-4-Benzyl-1-[(S)-3-methyl-2-((S)-2-methylamino-propionylamino)-butyryl]-piperazine-2-carboxylic acid benzhydryl-amide] | < 10 µM | –
CN[C@@H](C)C(=O)N[C@H](C(=O)N1CCN(Cc2ccccc2)C[C@H]1C(=O)NCCc1cccc(F)c1)C(C)C [Compound 63, (S)-4-Benzyl-1-[(S)-3-methyl-2-((S)-2-methylamino-propionylamino)-butyryl]-piperazine-2-carboxylic acid [2-(3-fluoro-phenyl)-ethyl]-amide] | < 10 µM | –
CN[C@@H](C)C(=O)N[C@H](C(=O)N1CCN(Cc2ccc(C)cc2)C[C@H]1C(=O)NC1CCCc2ccccc21)C(C)C (stereo partly drawn) [Compound 51, (S)-4-(4-Methyl-benzyl)-1-[(S)-3-methyl-2-((S)-2-methylamino-propionylamino)-butyryl]-piperazine-2-carboxylic acid (1,2,3,4-tetrahydro-naphthalen-1-yl)-amide] | – | < 10 µM
CN[C@@H](C)C(=O)N[C@H](C(=O)N1CCN(Cc2ccccc2)C[C@H]1C(=O)NC1Cc2ccccc2C1)C(C)C [Compound 78, (S)-4-Benzyl-1-[(S)-3-methyl-2-((S)-2-methylamino-propionylamino)-butyryl]-piperazine-2-carboxylic acid indan-2-ylamide] | < 10 µM | –
